From patent US6737383B1, “Herbicidal oxadiazolidines” (priority 1999, dated 2004)

How the values were obtained:
[1] = system: corn; test: Test B pre/postemergence corn; assay type: in vivo, Zea mays
Summary of the method: (§1)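 Response is a visual 0-to-10 score relative to untreated plants, where 0 means no effect and 10 means complete control, taken twelve to sixteen days after application. Treatments went onto soil at planting and onto foliage of 1- to 4-leaf plants, using a surfactant-containing non-phytotoxic solvent.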

[2] = system: sugar beet; test: Test B pre/postemergence sugar beet; assay type: in vivo, Beta vulgaris; details: for Plant response rating, Sugarbeets: scale of 0 to 10 where 0 is no effect and 10 is complete control
Summary of the method: as §1

[3] = system: smallflower flatsedge; test: Test B flood test smallflower flatsedge; assay type: in vivo, Cyperus difformis
Summary of the method: (§2)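 Read-out is a visual response score from 0 (no effect) to 10 (complete control), assigned by comparison with untreated controls. Treatment was applied at the 2-leaf stage, and plants stayed in the greenhouse for twelve to sixteen days before scoring.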

[4] = system: velvetleaf; test: Test B pre/postemergence velvetleaf; assay type: in vivo, Abutilon theophrasti; details: for Plant response rating, Velvetleaf: scale of 0 to 10 where 0 is no effect and 10 is complete control
Summary of the method: as §1

[5] = system: rice; test: Test B flood test rice; assay type: in vivo, Oryza sativa
Summary of the method: as §2

[6] = system: bamyardgrass; test: Test B flood test barnyardgrass; assay type: in vivo, Echinochloa crus-galli
Summary of the method: as §2

[7] = system: purple nutsedge; test: Test B pre/postemergence purple nutsedge; assay type: in vivo, Cyperus rotundus; details: for Plant response rating, Nutsedge: scale of 0 to 10 where 0 is no effect and 10 is complete control
Summary of the method: as §1

[8] = system: soybean; test: Test B pre/postemergence soybean; assay type: in vivo, Glycine max; details: for Plant response rating, Soybean: scale of 0 to 10 where 0 is no effect and 10 is complete control
Summary of the method: as §1

[9] = system: blackgrass; test: Test B pre/postemergence blackgrass; assay type: in vivo, Alopecurus myosuroides
Summary of the method: as §1

[10] = system: rape; test: Test B pre/postemergence rape; assay type: in vivo, Brassica napus; details: for Plant response rating, Rape: scale of 0 to 10 where 0 is no effect and 10 is complete control
Summary of the method: as §1

[11] = system: cocklebur; test: Test B pre/postemergence cocklebur; assay type: in vivo, Xanthium strumarium
Summary of the method: as §1

[12] = system: morningglory; test: Test B pre/postemergence morningglory; assay type: in vivo, Ipomoea hederacea; details: for Plant response rating, Morningglory: scale of 0 to 10 where 0 is no effect and 10 is complete control
Summary of the method: as §1

[13] = system: pigweed; test: Test B pre/postemergence pigweed; assay type: in vivo, Amaranthus retroflexus; details: for Plant response rating, Redroot pigweed: scale of 0 to 10 where 0 is no effect and 10 is complete control
Summary of the method: as §1

[14] = system: wild oat; test: Test B pre/postemergence wild oat; assay type: in vivo, Avena fatua; details: for Plant response rating, Wild oats: scale of 0 to 10 where 0 is no effect and 10 is complete control
Summary of the method: as §1

[15] = system: surinam grass; test: Test B pre/postemergence surinam grass; assay type: in vivo, Brachiaria decumbens
Summary of the method: as §1

[16] = Postemergence, Rate 250 g/ha, scale 0 to 10
[17] = Postemergence, Rate 500 g/ha, scale of 0 to 10 where 0 is no effect and 10 is complete control
[18] = Preemergence, Rate 62 g/ha, scale of 0 to 10 where 0 is no effect and 10 is complete control
[19] = Preemergence, Rate 125 g/ha, scale of 0 to 10 where 0 is no effect and 10 is complete control
[20] = Preemergence, Rate 250 g/ha, scale 0 to 10, 0 is no effect, 10 is complete control
[21] = Preemergence, Rate 500 g/ha, scale 0 to 10, 0 is no effect, 10 is complete control
[22] = Rate 62 g/ha, Postemergence, scale 0 to 10, 0 no effect, 10 complete control
[23] = Rate 125 g/ha, Postemergence, scale 0 to 10, 0 is no effect, 10 is complete control
[24] = Rate 62 g/ha, flood test species, Pre-emergence, visual evaluation after twelve to sixteen days
[25] = Rate 125 g/ha, under heading Pre-emergence, flood test species, visual evaluation after twelve to sixteen days
[26] = Rate 250 g/ha, Pre-emergence (flood test species), scale 0 to 10, 0 is no effect, 10 is complete control
[27] = Rate 500 g/ha, Pre-emergence, flood test species, scale 0 to 10 (0 no effect, 10 complete control)

## CC(C)N(C(=O)n1oc(=O)n(C(C)CCl)c1=O)c1ccc(Cl)cc1 (stereo not shown) [Compound 456]
[1]; [16]
  Corn plant response rating: 0
[1]; [17]
  Corn plant response rating: 0
[1]; [18]
  Plant response rating, Corn: 0
[1]; [19]
  Plant response rating, Corn: 0
[1]; [20]
  Corn plant response rating: 0
[1]; [21]
  Corn plant response rating: 0
[1]; [22]
  Corn plant response rating: 0
[1]; [23]
  Corn plant response rating: 0
[2]; [16]
  Sugarbeets plant response rating: 0
[2]; Preemergence, Rate 62 g/ha
  Plant response rating, Sugarbeets: 0
[2]; Preemergence, Rate 125 g/ha
  Plant response rating, Sugarbeets: 2
[2]; [20]
  Sugarbeets plant response rating: 2
[2]; [21]
  Sugarbeets plant response rating: 3
[2]; [22]
  Sugarbeets plant response rating: 0
[2]; [23]
  Sugarbeets plant response rating: 0
[3]; [24]
  Plant response rating, S. Flatsedge (0 to 10 scale, 0 is no effect, 10 is complete control): 0
[3]; [25]
  S. Flatsedge plant response rating (0 to 10 scale, 0 is no effect, 10 is complete control): 0
[3]; [26]
  S. Flatsedge plant response rating: 0
[3]; [27]
  S. Flatsedge plant response rating: 0
[4]; [16]
  Velvetleaf plant response rating: 0
[4]; Preemergence, Rate 62 g/ha
  Plant response rating, Velvetleaf: 0
[4]; Preemergence, Rate 125 g/ha
  Plant response rating, Velvetleaf: 0
[4]; [20]
  Velvetleaf plant response rating: 1
[4]; [21]
  Velvetleaf plant response rating: 2
[4]; [22]
  Velvetleaf plant response rating: 0
[4]; [23]
  Velvetleaf plant response rating: 0
[5]; [24]
  Plant response rating, Rice (0 to 10 scale, 0 is no effect, 10 is complete control): 0
[5]; [25]
  Rice plant response rating (0 to 10 scale, 0 is no effect, 10 is complete control): 0
[5]; [26]
  Rice plant response rating: 0
[5]; [27]
  Rice plant response rating: 0
[6]; [24]
  Plant response rating, Barnyardgrass (0 to 10 scale, 0 is no effect, 10 is complete control): 0
[6]; [25]
  Barnyardgrass plant response rating (0 to 10 scale, 0 is no effect, 10 is complete control): 0
[6]; [26]
  Barnyardgrass plant response rating: 0
[6]; [27]
  Barnyardgrass plant response rating: 0
[7]; [16]
  Nutsedge plant response rating: 0
[7]; Preemergence, Rate 62 g/ha
  Plant response rating, Nutsedge: 0
[7]; Preemergence, Rate 125 g/ha
  Plant response rating, Nutsedge: 0
[7]; [20]
  Nutsedge plant response rating: 0
[7]; [21]
  Nutsedge plant response rating: 0
[7]; [22]
  Nutsedge plant response rating: 0
[7]; [23]
  Nutsedge plant response rating: 0
[8]; [16]
  Soybean plant response rating: 2
[8]; Preemergence, Rate 62 g/ha
  Plant response rating, Soybean: 0
[8]; Preemergence, Rate 125 g/ha
  Plant response rating, Soybean: 0
[8]; [20]
  Soybean plant response rating: 0
[8]; [21]
  Soybean plant response rating: 0
[8]; [22]
  Soybean plant response rating: 1
[8]; [23]
  Soybean plant response rating: 3
[9]; [16]
  Blackgrass plant response rating: 4
[9]; [17]
  Blackgrass plant response rating: 8
[9]; [18]
  Plant response rating, Blackgrass: 0
[9]; [19]
  Plant response rating, Blackgrass: 2
[9]; [20]
  Blackgrass plant response rating: 3
[9]; [21]
  Blackgrass plant response rating: 6
[9]; [22]
  Blackgrass plant response rating: 4
[9]; [23]
  Blackgrass plant response rating: 4
[10]; [16]
  Rape plant response rating: 0
[10]; Preemergence, Rate 62 g/ha
  Plant response rating, Rape: 0
[10]; Preemergence, Rate 125 g/ha
  Plant response rating, Rape: 0
[10]; [20]
  Rape plant response rating: 0
[10]; [21]
  Rape plant response rating: 0
[10]; [22]
  Rape plant response rating: 0
[10]; [23]
  Rape plant response rating: 0
[11]; [16]
  Cocklebur plant response rating: 0
[11]; [17]
  Cocklebur plant response rating: 2
[11]; [18]
  Plant response rating, Cocklebur: 0
[11]; [19]
  Plant response rating, Cocklebur: 0
[11]; [20]
  Cocklebur plant response rating: 0
[11]; [21]
  Cocklebur plant response rating: 0
[11]; [22]
  Cocklebur plant response rating: 0
[11]; [23]
  Cocklebur plant response rating: 0
[12]; [16]
  Morningglory plant response rating: 5
[12]; Preemergence, Rate 62 g/ha
  Plant response rating, Morningglory: 0
[12]; Preemergence, Rate 125 g/ha
  Plant response rating, Morningglory: 0
[12]; [20]
  Morningglory plant response rating: 3
[12]; [21]
  Morningglory plant response rating: 3
[12]; [22]
  Morningglory plant response rating: 3
[12]; [23]
  Morningglory plant response rating: 3
[13]; [16]
  Redroot pigweed plant response rating: 3
[13]; Preemergence, Rate 62 g/ha
  Plant response rating, Redroot pigweed: 0
[13]; Preemergence, Rate 125 g/ha
  Plant response rating, Redroot pigweed: 2
[13]; [20]
  Redroot pigweed plant response rating: 3
[13]; [21]
  Redroot pigweed plant response rating: 5
[13]; [22]
  Redroot pigweed plant response rating: 0
[13]; [23]
  Redroot pigweed plant response rating: 0
[14]; [16]
  Wild oats plant response rating: 0
[14]; Preemergence, Rate 62 g/ha
  Plant response rating, Wild oats: 0
[14]; Preemergence, Rate 125 g/ha
  Plant response rating, Wild oats: 0
[14]; [20]
  Wild oats plant response rating: 2
[14]; [21]
  Wild oats plant response rating: 3
[14]; [22]
  Wild oats plant response rating: 0
[14]; [23]
  Wild oats plant response rating: 0
[15]; Postemergence, Rate 250 g/ha, scale 0 to 10, 0 no effect, 10 complete control
  B. signalgrass plant response rating: 0
[15]; [17]
  B. signalgrass plant response rating: 2
[15]; [18]
  Plant response rating, B. signalgrass: 0
[15]; [19]
  Plant response rating, B. signalgrass: 0
[15]; [20]
  B. signalgrass plant response rating: 0
[15]; [21]
  B. signalgrass plant response rating: 2
[15]; [22]
  B. signalgrass plant response rating: 0
[15]; [23]
  B. signalgrass plant response rating: 0
